System: anterior ocular segment
Test: Test Example 7 (2)(c): ocular local toxicity, visual observation on the anterior ocular segment, 28 days instillation
Format: in vivo, Japanese white rabbits
Set-up: Cornea (opacity x area), numerical rating / Iris, numerical rating / Conjunctiva (A) redness of palpebral conjunctiva, numerical rating / Conjunctiva (B) edema of palpebral conjunctiva, numerical rating / Conjunctiva (C) redness of bulbar conjunctiva, numerical rating / Conjunctiva (D) nictitating membrane, numerical rating / Conjunctiva (E) discharge, numerical rating / Total numerical rating: scale not given here
Protocol: (2) Ocular local toxicity test in rabbits of 1.0% and 0.5% ophthalmic solutions of amosulalol hydrochloride by consecutive instillation for 28 days:
With 15 male Japanese white rabbits divided into 3 groups each consisting of 5 rabbits, 1.0% and 0.5% ophthalmic solutions of amosulalol hydrochloride as well as physiological saline as a control were applied in one drop (0.05 ml) per time to the right eye of each rabbit alone, four times a day at a regular interval of 2.5 hours, for 28 days consecutively with the left eye being left untreated.
(c) Visual observation on the anterior ocular segment; Based on the below-described criteria for assessment of ocular injuries (Gendai no Rinsho (Present-Day Clinics) Vol. 4, No. 4, pp. 227-289, 1970), numerical rating was performed on 1.0% and 0.5% ophthalmic solutions of amosulalol hydrochloride before instillation as well as on the day (Day 1) of initiating the instillation and on the 2nd, 4th, 7th, 14th, 21st, 28th days after initiating the instillation but each time after completion of the instillation and on the morning of the last instillation (29th day). With reference to the results of numerical rating, a numerical rating of not less than 1 as determined on either of the items was understood to be judged "injurious to the eye" while numerical ratings of 0 and 0.5 were considered "not injurious to the eye".
Criteria for assessment of ocular injuries:
Tables 5 and 6 show the results of the visual observation on the anterior ocular section, being specified above under Item (c), as obtained with 1.0% and 0.5% ophthalmic solutions of amosulalol hydrochloride, respectively, wherein each value given represents a mean for 5 cases.
In Tables 5 and 6, the numerical rating of cornea means the value obtained by multiplying a value in "(A) Degree of Opacity" by that of "(B) Area of opacity" in the above-described "Criteria for assessment of ocular injuries".

[1] = 0.5% solution, before instillation, mean of 5
[2] = 0.5% solution, day 1, mean of 5
[3] = 0.5% solution, day 2, mean of 5
[4] = 0.5% solution, day 4, mean of 5
[5] = 0.5% solution, day 7, mean of 5
[6] = 0.5% solution, day 14, mean of 5
[7] = 0.5% solution, day 21, mean of 5
[8] = 0.5% solution, day 28, mean of 5
[9] = 0.5% solution, day 29, mean of 5
[10] = 1.0% solution, before instillation, mean of 5
[11] = 1.0% solution, day 1, mean of 5
[12] = 1.0% solution, day 2, mean of 5
[13] = 1.0% solution, day 4, mean of 5
[14] = 1.0% solution, day 7, mean of 5
[15] = 1.0% solution, day 14, mean of 5
[16] = 1.0% solution, day 21, mean of 5
[17] = 1.0% solution, day 28, mean of 5
[18] = 1.0% solution, day 29, mean of 5

## COc1ccccc1OCCNCC(O)c1ccc(C)c(S(N)(=O)=O)c1.Cl (centres unmarked) [amosulalol hydrochloride, 5-[1-hydroxy-2-[2-(2-methoxyphenoxy)ethylamino]ethyl]-2-methylbenzenesulfonamide hydrochloride]
[1]
  Conjunctiva (A) redness of palpebral conjunctiva, numerical rating: 0
  Conjunctiva (B) edema of palpebral conjunctiva, numerical rating: 0
  Conjunctiva (C) redness of bulbar conjunctiva, numerical rating: 0
  Conjunctiva (D) nictitating membrane, numerical rating: 0
  Conjunctiva (E) discharge, numerical rating: 0
  Cornea (opacity x area), numerical rating: 0
  Iris, numerical rating: 0
  Total numerical rating: 0
[2]
  Conjunctiva (A) redness of palpebral conjunctiva, numerical rating: 0
  Conjunctiva (B) edema of palpebral conjunctiva, numerical rating: 0
  Conjunctiva (C) redness of bulbar conjunctiva, numerical rating: 0.4
  Conjunctiva (D) nictitating membrane, numerical rating: 0
  Conjunctiva (E) discharge, numerical rating: 0
  Cornea (opacity x area), numerical rating: 0
  Iris, numerical rating: 0
  Total numerical rating: 0.4
[3]
  Conjunctiva (A) redness of palpebral conjunctiva, numerical rating: 0
  Conjunctiva (B) edema of palpebral conjunctiva, numerical rating: 0
  Conjunctiva (C) redness of bulbar conjunctiva, numerical rating: 0.4
  Conjunctiva (D) nictitating membrane, numerical rating: 0
  Conjunctiva (E) discharge, numerical rating: 0
  Cornea (opacity x area), numerical rating: 0
  Iris, numerical rating: 0
  Total numerical rating: 0.4
[4]
  Conjunctiva (A) redness of palpebral conjunctiva, numerical rating: 0
  Conjunctiva (B) edema of palpebral conjunctiva, numerical rating: 0
  Conjunctiva (C) redness of bulbar conjunctiva, numerical rating: 0.2
  Conjunctiva (D) nictitating membrane, numerical rating: 0
  Conjunctiva (E) discharge, numerical rating: 0
  Cornea (opacity x area), numerical rating: 0
  Iris, numerical rating: 0
  Total numerical rating: 0.2
[5]
  Conjunctiva (A) redness of palpebral conjunctiva, numerical rating: 0
  Conjunctiva (B) edema of palpebral conjunctiva, numerical rating: 0
  Conjunctiva (C) redness of bulbar conjunctiva, numerical rating: 0.2
  Conjunctiva (D) nictitating membrane, numerical rating: 0
  Conjunctiva (E) discharge, numerical rating: 0
  Cornea (opacity x area), numerical rating: 0
  Iris, numerical rating: 0
  Total numerical rating: 0.2
[6]
  Conjunctiva (A) redness of palpebral conjunctiva, numerical rating: 0
  Conjunctiva (B) edema of palpebral conjunctiva, numerical rating: 0
  Conjunctiva (C) redness of bulbar conjunctiva, numerical rating: 0.2
  Conjunctiva (D) nictitating membrane, numerical rating: 0
  Conjunctiva (E) discharge, numerical rating: 0
  Cornea (opacity x area), numerical rating: 0
  Iris, numerical rating: 0
  Total numerical rating: 0.2
[7]
  Conjunctiva (A) redness of palpebral conjunctiva, numerical rating: 0
  Conjunctiva (B) edema of palpebral conjunctiva, numerical rating: 0
  Conjunctiva (C) redness of bulbar conjunctiva, numerical rating: 0.1
  Conjunctiva (D) nictitating membrane, numerical rating: 0
  Conjunctiva (E) discharge, numerical rating: 0
  Cornea (opacity x area), numerical rating: 0
  Iris, numerical rating: 0
  Total numerical rating: 0.1
[8]
  Conjunctiva (A) redness of palpebral conjunctiva, numerical rating: 0
  Conjunctiva (B) edema of palpebral conjunctiva, numerical rating: 0
  Conjunctiva (C) redness of bulbar conjunctiva, numerical rating: 0.1
  Conjunctiva (D) nictitating membrane, numerical rating: 0
  Conjunctiva (E) discharge, numerical rating: 0
  Cornea (opacity x area), numerical rating: 0
  Iris, numerical rating: 0
  Total numerical rating: 0.1
[9]
  Conjunctiva (A) redness of palpebral conjunctiva, numerical rating: 0
  Conjunctiva (B) edema of palpebral conjunctiva, numerical rating: 0
  Conjunctiva (C) redness of bulbar conjunctiva, numerical rating: 0
  Conjunctiva (D) nictitating membrane, numerical rating: 0
  Conjunctiva (E) discharge, numerical rating: 0
  Cornea (opacity x area), numerical rating: 0
  Iris, numerical rating: 0
  Total numerical rating: 0
1.0% and 0.5% ophthalmic solutions, 4 times a day, 28 days
  visual observation of the anterior ocular segment: no abnormality
[10]
  Conjunctiva (A) redness of palpebral conjunctiva, numerical rating: 0
  Conjunctiva (B) edema of palpebral conjunctiva, numerical rating: 0
  Conjunctiva (C) redness of bulbar conjunctiva, numerical rating: 0
  Conjunctiva (D) nictitating membrane, numerical rating: 0
  Conjunctiva (E) discharge, numerical rating: 0
  Cornea (opacity x area), numerical rating: 0
  Iris, numerical rating: 0
  Total numerical rating: 0
[11]
  Conjunctiva (A) redness of palpebral conjunctiva, numerical rating: 0.2
  Conjunctiva (B) edema of palpebral conjunctiva, numerical rating: 0
  Conjunctiva (C) redness of bulbar conjunctiva, numerical rating: 0.5
  Conjunctiva (D) nictitating membrane, numerical rating: 0
  Conjunctiva (E) discharge, numerical rating: 0
  Cornea (opacity x area), numerical rating: 0
  Iris, numerical rating: 0
  Total numerical rating: 0.7
[12]
  Conjunctiva (A) redness of palpebral conjunctiva, numerical rating: 0.2
  Conjunctiva (B) edema of palpebral conjunctiva, numerical rating: 0
  Conjunctiva (C) redness of bulbar conjunctiva, numerical rating: 0.5
  Conjunctiva (D) nictitating membrane, numerical rating: 0
  Conjunctiva (E) discharge, numerical rating: 0
  Cornea (opacity x area), numerical rating: 0
  Iris, numerical rating: 0
  Total numerical rating: 0.7
[13]
  Conjunctiva (A) redness of palpebral conjunctiva, numerical rating: 0.1
  Conjunctiva (B) edema of palpebral conjunctiva, numerical rating: 0
  Conjunctiva (C) redness of bulbar conjunctiva, numerical rating: 0.5
  Conjunctiva (D) nictitating membrane, numerical rating: 0
  Conjunctiva (E) discharge, numerical rating: 0
  Cornea (opacity x area), numerical rating: 0
  Iris, numerical rating: 0
  Total numerical rating: 0.6
[14]
  Conjunctiva (A) redness of palpebral conjunctiva, numerical rating: 0.1
  Conjunctiva (B) edema of palpebral conjunctiva, numerical rating: 0
  Conjunctiva (C) redness of bulbar conjunctiva, numerical rating: 0.3
  Conjunctiva (D) nictitating membrane, numerical rating: 0
  Conjunctiva (E) discharge, numerical rating: 0
  Cornea (opacity x area), numerical rating: 0
  Iris, numerical rating: 0
  Total numerical rating: 0.4
[15]
  Conjunctiva (A) redness of palpebral conjunctiva, numerical rating: 0.1
  Conjunctiva (B) edema of palpebral conjunctiva, numerical rating: 0
  Conjunctiva (C) redness of bulbar conjunctiva, numerical rating: 0.3
  Conjunctiva (D) nictitating membrane, numerical rating: 0
  Conjunctiva (E) discharge, numerical rating: 0
  Cornea (opacity x area), numerical rating: 0
  Iris, numerical rating: 0
  Total numerical rating: 0.4
[16]
  Conjunctiva (A) redness of palpebral conjunctiva, numerical rating: 0.1
  Conjunctiva (B) edema of palpebral conjunctiva, numerical rating: 0
  Conjunctiva (C) redness of bulbar conjunctiva, numerical rating: 0.3
  Conjunctiva (D) nictitating membrane, numerical rating: 0
  Conjunctiva (E) discharge, numerical rating: 0
  Cornea (opacity x area), numerical rating: 0
  Iris, numerical rating: 0
  Total numerical rating: 0.4
[17]
  Conjunctiva (A) redness of palpebral conjunctiva, numerical rating: 0.1
  Conjunctiva (B) edema of palpebral conjunctiva, numerical rating: 0
  Conjunctiva (C) redness of bulbar conjunctiva, numerical rating: 0.3
  Conjunctiva (D) nictitating membrane, numerical rating: 0
  Conjunctiva (E) discharge, numerical rating: 0
  Cornea (opacity x area), numerical rating: 0
  Iris, numerical rating: 0
  Total numerical rating: 0.4
[18]
  Conjunctiva (A) redness of palpebral conjunctiva, numerical rating: 0
  Conjunctiva (B) edema of palpebral conjunctiva, numerical rating: 0
  Conjunctiva (C) redness of bulbar conjunctiva, numerical rating: 0
  Conjunctiva (D) nictitating membrane, numerical rating: 0
  Conjunctiva (E) discharge, numerical rating: 0
  Cornea (opacity x area), numerical rating: 0
  Iris, numerical rating: 0
  Total numerical rating: 0
Ophthalmic solution
  side effects such as ocular irritation: free from side effects such as ocular irritation

— patent publication US5663205A, “Pharmaceutical composition for use in glaucoma treatment” (Senju Pharmaceutical Co. Ltd., priority 1992, dated 1997)
